Laboratory results published in patent US12617770B2, “IRAK inhibitor and preparation method therefor and use thereof” (WUHAN CREATERNA SCIENCE AND TECHNOLOGY CO., LTD., priority 2019, dated 2026).

Target: T1, CYP3A4 (Homo sapiens, UniProt P08684)
T1 construct: The test compounds were co-incubated with the human liver microsomes and a probe substrate midazolam (CYP3A4); tissue Corning (USA); host or cells: mixed (pooled) human liver microsomes
Assay: Time-dependent inhibition (TDI) of CYP3A4 in human liver microsomes
Format: in vitro ADME
Settings: probe substrate midazolam
Method: This study was intended to investigate the time-dependent inhibition effect of the compounds on CYP3A4 in human P450 superfamily. The mixed human liver microsomes used in this assay were purchased from Corning (USA).
The test compounds were co-incubated with the human liver microsomes and a probe substrate midazolam (CYP3A4), and the concentration of the test compounds was set at 30 μM. The reaction was initiated by adding coenzyme NADPH, and terminated by adding acetonitrile dossolved with internal standard in advance. After the proteins were precipitated, the supernatant was centrifuged. The characteristic metabolite 1-hydroxy-midazolam (CYP3A4) in the supernatant was analyzed by LC-MS/MS. The influence of the test compounds on production of the characteristic metabolites was finally analyzed on the basis of the data obtained. A selective inhibitor (verapamil for CYP3A4-M) was used as positive control.

T1 sequence (P08684 whole entry): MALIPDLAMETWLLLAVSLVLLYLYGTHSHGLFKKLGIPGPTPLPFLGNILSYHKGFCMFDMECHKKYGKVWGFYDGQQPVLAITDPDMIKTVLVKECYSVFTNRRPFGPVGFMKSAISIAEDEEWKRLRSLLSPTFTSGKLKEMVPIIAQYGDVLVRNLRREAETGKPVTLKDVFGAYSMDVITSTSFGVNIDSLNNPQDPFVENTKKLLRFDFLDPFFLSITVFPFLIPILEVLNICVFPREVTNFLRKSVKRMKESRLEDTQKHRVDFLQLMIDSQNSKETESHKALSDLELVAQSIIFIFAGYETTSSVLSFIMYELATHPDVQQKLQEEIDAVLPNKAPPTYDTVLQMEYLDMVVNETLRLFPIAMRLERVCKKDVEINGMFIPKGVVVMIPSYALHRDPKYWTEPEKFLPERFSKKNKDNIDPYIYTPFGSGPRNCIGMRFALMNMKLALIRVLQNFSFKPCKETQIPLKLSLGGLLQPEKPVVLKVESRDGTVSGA

COc1cc2nn([C@H]3CC[C@](C)(O)CC3)cc2cc1NC(=O)c1cccc(C)[n+]1[O-] [Compound 001, 2-((2-((1r,4r)-4-hydroxy-4-methylcyclohexyl)-6-methoxy-2H-indazol-5-yl)carbamoyl)-6-methylpyridine 1-oxide]
TDI (3A4, 30 μM): −3.68%
